Columns and labels:
healthy mice = test: Biodistribution in healthy male and female mice; assay type: in vivo; settings: 1 h p.i.
Procedure: Two groups of healthy mice (males and females; n = 4/group) were injected with 10 pmol of [^68Ga]Ga-DOTA.SA.FAPi (0.08–0.1 MBq) in 100 µL of NaCl 0.9% and biodistribution studies were conducted at 1 h p.i. (Supplemental Data).

PC3 tumor-bearing mice = test: Ex vivo biodistribution of 177Lu-labeled radiotracers in PC3 xenografts; settings: for Biodistribution Blood / Biodistribution Bone / Biodistribution Heart / Biodistribution Intestine / Biodistribution Kidney / Biodistribution Liver / Biodistribution Lung / Biodistribution Muscle / Biodistribution PC3-Tumor / Biodistribution Pancreas / Biodistribution Spleen / Biodistribution Stomach / Tumor/Blood ratio / Tumor/Liver ratio / Tumor/Muscle ratio / Tumor/Pancreas ratio: PC3 xenografts
Procedure: U87MG and PC3 tumor-bearing mice: Female athymic BALB/c (6 weeks/16–20 g) and male athymic BALB/c nude mice (6 weeks/20–25 g) were implanted with U87MG or PC3 cells (5 × 10^6/100 µL PBS) into their right shoulder, respectively. The animals were used for biodistribution and PET/SPECT/CT imaging studies (Animal License No: BE98/2021).
Ten pmol (0.06–0.08 MBq) of the radiotracers in 100 µL of NaCl 0.9% were injected intravenously into the tail vein of PC3 tumor-bearing mice. Biodistribution studies were conducted at 1, 4, 24, and 48 h after the injection of [^177Lu]Lu-DOTA.SA.FAPi and at 4, 24, 48, 72, and 96 h after the injection of [^177Lu]Lu-DOTAGA.(SA.FAPi)2 (Supplemental Data). […]
was counted in a γ-counter. Biodistribution data are given as the percent of injected activity per gram of tissue (% IA/g) and as means ± SD (n = 4). […]
[177Lu]Lu-DOTA.SA.FAPi and [177Lu]Lu-DOTAGA.(SA.FAPi)2
Ten pmol (0.06-0.08 MBq) of [177Lu]Lu-monomer and [177Lu]Lu-dimer in 100 µL of NaCl 0.9% were injected intravenously into the tail vein of PC3 tumor-bearing mice. The PC3 tumor-bearing mice were used between the 15th and 17th day after the xenograft implantation and its size was 281 ± 75 mm3. Animals were terminally anesthetized by intraperitoneal injection of an overdose of pentobarbital natrium (150 mg/kg; Streuli Pharma SA, Uznach, Switzerland) 1, 4, 24 and 48 h after the injection of [177Lu]Lu-DOTA.SA.FAPi and at 4, 24, 48, 72 and 96 h after the injection of [177Lu]Lu-DOTAGA.(SA.FAPi)2. The organs of interest were dissected and weighed, and the radioactivity in the tissue samples was counted in a γ-counter. The biodistribution data are given as the percent of injected activity per gram of tissue (% IA/g) and as means ± SD (n = 4). […]
0.25mm. The reconstructed data were corrected for Lutetium-177 decay, normalized, and filtered using a Gaussian 3D algorithm with a 2 mm isotropic kernel and generated using PMOD software. […]
The color scale of […]
the SPECT images was set as 0 to 13% IA/mL allowing for qualitative comparisons among the images.

## N#C[C@@H]1CC(F)(F)CN1C(=O)CNC(=O)c1ccnc2ccc(OCCCCNc3c(NCCNC(=O)CN4CCN(CC(=O)[O-])CCN(CC(=O)[O-])CCN(CC(=O)[O-])CC4)c(=O)c3=O)cc12.[68Ga+3] [[^68Ga]Ga-DOTA.SA.FAPi]
Healthy mice; healthy female mice
  Biodistribution Blood: 13.5 ± 4.1 % IA/g
  Biodistribution Bone: 5.0 ± 0.2 % IA/g
  Biodistribution Heart: 5.1 ± 0.9 % IA/g
  Biodistribution Intestine: 3.0 ± 0.3 % IA/g
  Biodistribution Kidney: 5.0 ± 0.7 % IA/g
  Biodistribution Liver: 3.3 ± 0.4 % IA/g
  Biodistribution Lung: 4.3 ± 1.6 % IA/g
  Biodistribution Muscle: 6.3 ± 3.4 % IA/g
  Biodistribution Pancreas: 7.6 ± 2.6 % IA/g
  Biodistribution Spleen: 2.7 ± 0.7 % IA/g
  Biodistribution Stomach: 1.7 ± 0.04 % IA/g
Healthy mice; healthy male mice
  Biodistribution Blood: 8.5 ± 0.1 % IA/g
  Biodistribution Bone: 1.5 ± 0.9 % IA/g
  Biodistribution Heart: 3.1 ± 0.04 % IA/g
  Biodistribution Intestine: 3.1 ± 0.2 % IA/g
  Biodistribution Kidney: 3.5 ± 0.4 % IA/g
  Biodistribution Liver: 2.3 ± 0.1 % IA/g
  Biodistribution Lung: 2.7 ± 0.6 % IA/g
  Biodistribution Muscle: 2.0 ± 0.3 % IA/g
  Biodistribution Pancreas: 8.6 ± 0.1 % IA/g
  Biodistribution Spleen: 2.3 ± 0.1 % IA/g
  Biodistribution Stomach: 2.0 ± 0.3 % IA/g

## N#C[C@@H]1CC(F)(F)CN1C(=O)CNC(=O)c1ccnc2ccc(OCCCCNc3c(NCCNC(=O)CN4CCN(CC(=O)[O-])CCN(CC(=O)[O-])CCN(CC(=O)[O-])CC4)c(=O)c3=O)cc12.[177Lu+3] [[^177Lu]Lu-DOTA.SA.FAPi]
PC3 tumor-bearing mice; PC3 tumor-bearing mice, 4 h p.i.
  PC3 tumor uptake: 8.9 ± 0.2 %I.A./g
PC3 tumor-bearing mice; 1 h
  Biodistribution Blood: 9.1 ± 1.8 % IA/g
  Biodistribution Bone: 4.0 ± 0.5 % IA/g
  Biodistribution Heart: 3.1 ± 0.7 % IA/g
  Biodistribution Intestine: 3.2 ± 0.4 % IA/g
  Biodistribution Kidney: 4.3 ± 0.5 % IA/g
  Biodistribution Liver: 3.8 ± 0.2 % IA/g
  Biodistribution Lung: 4.3 ± 0.6 % IA/g
  Biodistribution Muscle: 3.7 ± 1.0 % IA/g
  Biodistribution PC3-Tumor: 9.6 ± 0.9 % IA/g
  Biodistribution Pancreas: 12 ± 1.1 % IA/g
  Biodistribution Spleen: 3.0 ± 0.1 % IA/g
  Biodistribution Stomach: 2.5 ± 0.3 % IA/g
  Tumor/Blood ratio: 1.1
  Tumor/Liver ratio: 2.2 ± 0.2
  Tumor/Muscle ratio: 2.8 ± 1.0
  Tumor/Pancreas ratio: 0.8 ± 0.1
PC3 tumor-bearing mice; 4 h
  Biodistribution Blood: 3.1 ± 0.2 % IA/g
  Biodistribution Bone: 4.2 ± 0.6 % IA/g
  Biodistribution Heart: 1.5 ± 0.3 % IA/g
  Biodistribution Intestine: 1.8 ± 0.3 % IA/g
  Biodistribution Kidney: 2.6 ± 0.03 % IA/g
  Biodistribution Liver: 3.0 ± 0.1 % IA/g
  Biodistribution Lung: 1.7 ± 0.07 % IA/g
  Biodistribution Muscle: 2.3 ± 0.1 % IA/g
  Biodistribution PC3-Tumor: 8.9 ± 0.2 % IA/g
  Biodistribution Pancreas: 5.3 ± 0.4 % IA/g
  Biodistribution Spleen: 1.7 ± 0.1 % IA/g
  Biodistribution Stomach: 1.7 ± 0.5 % IA/g
  Tumor/Blood ratio: 2.9 ± 0.2
  Tumor/Liver ratio: 3.0 ± 0.1
  Tumor/Muscle ratio: 3.9 ± 0.1
  Tumor/Pancreas ratio: 1.7 ± 0.2
PC3 tumor-bearing mice; 24 h
  Biodistribution Blood: 0.2 ± 0.09 % IA/g
  Biodistribution Bone: 0.7 ± 0.2 % IA/g
  Biodistribution Heart: 0.1 ± 0.04 % IA/g
  Biodistribution Intestine: 0.2 ± 0.02 % IA/g
  Biodistribution Kidney: 0.6 ± 0.06 % IA/g
  Biodistribution Liver: 1.9 ± 0.3 % IA/g
  Biodistribution Lung: 0.2 ± 0.03 % IA/g
  Biodistribution Muscle: 0.3 ± 0.04 % IA/g
  Biodistribution PC3-Tumor: 1.8 ± 0.1 % IA/g
  Biodistribution Pancreas: 0.3 ± 0.1 % IA/g
  Biodistribution Spleen: 0.2 ± 0.03 % IA/g
  Biodistribution Stomach: 0.1 ± 0.02 % IA/g
PC3 tumor-bearing mice; 48 h
  Biodistribution Blood: 0.01 ± 0.0 % IA/g
  Biodistribution Bone: 0.1 ± 0.01 % IA/g
  Biodistribution Heart: 0.03 ± 0.02 % IA/g
  Biodistribution Intestine: 0.04 ± 0.0 % IA/g
  Biodistribution Kidney: 0.12 ± 0.07 % IA/g
  Biodistribution Liver: 1.1 ± 0.1 % IA/g
  Biodistribution Lung: 0.05 ± 0.04 % IA/g
  Biodistribution Muscle: 0.05 ± 0.07 % IA/g
  Biodistribution PC3-Tumor: 1.0 ± 0.1 % IA/g
  Biodistribution Pancreas: 0.06 ± 0.01 % IA/g
  Biodistribution Spleen: 0.1 ± 0.06 % IA/g
  Biodistribution Stomach: 0.05 ± 0.02 % IA/g

From PMC11243320, “Tailoring Fibroblast-Activation Protein Targeting for Theranostics: A Comparative Preclinical Evaluation of the ^68Ga- and ^177Lu-Labeled Monomeric and Dimeric Fibroblast-Activation Protein Inhibitors DOTA.SA.FAPi and DOTAGA.(SA.FAPi)2” (Molecules, 2024)
